Measurements taken from US12121514B2, “Nonselective metabotropic glutamate receptor activators for treatment of attention deficit disorder and 22Q syndrome” (THE CHILDREN'S HOSPITAL OF PHILADELPHIA, priority 2015, dated 2024).
Several values for one entry are separate records, joined by “and”; a condition that tells them apart may be missing. Equal values may be shown once.

Tested on: adolescent subjects with ADHD and at least one genetic alteration in an mGluR network gene
Assay: Vanderbilt ADHD score (items 1-18, parent), Phase Ib trial of NFC-1
Format: in vivo, human
Description: The Vanderbilt Rating Scale is a measure that can be completed by parents or teachers (separate forms, see Vanderbilt Rating Scale Parents and Vanderbilt Rating Scale Teachers). The Vanderbilt scale rates the child's behavior on items such as attention, finishing tasks, hyperactivity, difficulty waiting, and measures of conduct or oppositional defiant disorders—as well as measures of overall school performance and interactions with others. The first 18 items on the Vanderbilt scale correspond to those of the ADHD Rating Scale IV above while the Vanderbilt scale also includes items 19-47 related to other mental disorders including ODD (items 19-26), conduct disorder (items 27-40), anxiety (items 41, 42, and 47), and depression (items 43-46). Each of the behavioral assessment items on the Vanderbilt Scale are rated 0, 1, 2, or 3, with 0=never occurring; 1=occasionally, 2=often, and 3=very often. Thus, the ADHD Rating Scale IV, ADHD Rating Scale V, and items 1-18 of the Vanderbilt Rating Scale are equivalent scales, while additional items on the Vanderbilt Scale assess co-morbid phenotypes and disorders.
Each of the items are rated on a scale of 0, 1, 2, or 3, with 0=never; 1=occasionally, 2=often, and 3=very often. A total score of 0 to 54 is computed based on the answers to the 18 questions.
As used herein an “ADHD rating scale score,” “ADHD score” or “Vanderbilt ADHD score” are used interchangeably to refer to the computed score of the 18 items of the ADHD Rating Scale IV or V or the first 18 items of the Vanderbilt Rating Scale in any of their associated versions, e.g., for parent, teacher, or clinician to complete, and for a pediatric subject or adult subject. Clinical trials may assess the impact of drug or placebo on the ADHD score or Vanderbilt ADHD score (i.e. the score of 0 to 54 based on the first 18 items in the ADHD or Vanderbilt rating scale). In some cases, results of a clinical trial population may be analyzed by comparing the average score or a percentage change in score over time of administration of drug.
An open-label Phase Ib clinical trial was initiated to investigate the safety, pharmacokinetics and efficacy of NFC-1 (fasoracetam monohydrate) in adolescent subjects between the ages of 12 and 17 previously diagnosed with ADHD who also had at least one genetic alteration in an mGluR network gene.
Dose-escalation phase of the trial followed the PK and initial safety assessment and ran over a 5-week period. During week 1, all subjects were administered placebo capsules twice daily. After one week of placebo treatment, patients were started on 50 mg bid NFC-1 for 1 week. If safety and responsiveness data from prior dose level of fasoracetam indicated it was appropriate, subjects were then escalated to the next higher dose (100, 200, or 400 mg). […] Of the 30 trial subjects, 3 received a maximum dose of 100 mg, 9 received a maximum dose of 200 mg, and the remaining 18 received a maximum dose of 400 mg.
All efficacy assessments, except actigraphy, were made at study enrollment (“enrollment baseline”) and again, including actigraphy, once-per-week for the placebo week (“week 1” or “placebo baseline”) and at each of the 4 weeks of NFC-1 treatment. These efficacy measures include items 1-18 of the Vanderbilt scale assessing symptoms related to inattentiveness and hyperactivity-impulsiveness as well as additional questions 19-47 of the Vanderbilt scale assessing other behavioral symptoms (conducted by parent), actigraphy for quantitative measurement of activity, Quotient® ADHD test for objective measurement of micro-motion and shifts in attention state, PERMP-Math test, and CGI-I and CGI-S for assessment of global functioning. […]

[1] = relative to placebo (week 1) baseline, Tier 3, Week 3, up to 100 mg bid
[2] = relative to placebo (week 1) baseline, Tier 3, Week 4, 200 mg bid
[3] = relative to placebo (week 1) baseline, Tier 3, Week 4, up to 200 mg bid
[4] = relative to placebo (week 1) baseline, Tier 3, Week 5, 400 mg bid
[5] = relative to placebo (week 1) baseline, Tier 3, Week 5, up to 400 mg bid
[6] = relative to pre-study (enrollment) baseline, Overall, Week 2, 50 mg bid
[7] = relative to pre-study (enrollment) baseline, Overall, Week 3, 100 mg bid
[8] = relative to pre-study (enrollment) baseline, Overall, Week 3, up to 100 mg bid
[9] = relative to pre-study (enrollment) baseline, Overall, Week 4, 200 mg bid
[10] = relative to pre-study (enrollment) baseline, Overall, Week 4, up to 200 mg bid
[11] = relative to pre-study (enrollment) baseline, Overall, Week 5, 400 mg bid
[12] = relative to pre-study (enrollment) baseline, Tier 1, Week 2, 50 mg bid
[13] = relative to pre-study (enrollment) baseline, Tier 1, Week 3, 100 mg bid
[14] = relative to pre-study (enrollment) baseline, Tier 1, Week 3, up to 100 mg bid
[15] = relative to pre-study (enrollment) baseline, Tier 1, Week 4, 200 mg bid

O=C1CC[C@H](C(=O)N2CCCCC2)N1 [NFC-1, fasoracetam monohydrate]
Percent of subjects demonstrating robust improvement in Vanderbilt ADHD score (at least 40% decrease) [1]: 0% | Percent of subjects with improvement in Vanderbilt ADHD score (at least 25% decrease) [1]: 20% | Percent of subjects completing the dose escalation to 400 mg bid that show improvement in Vanderbilt ADHD scores (at least 25% decrease) [2]: 0% | Percent of subjects completing the dose escalation to 400 mg bid that show robust improvement in Vanderbilt ADHD scores (at least 40% decrease) [2]: 0% | Percent of subjects demonstrating robust improvement in Vanderbilt ADHD score (at least 40% decrease) [3]: 0% | Percent of subjects with improvement in Vanderbilt ADHD score (at least 25% decrease) [3]: 0% | Percent of subjects completing the dose escalation to 400 mg bid that show improvement in Vanderbilt ADHD scores (at least 25% decrease) [4]: 0% | Percent of subjects completing the dose escalation to 400 mg bid that show robust improvement in Vanderbilt ADHD scores (at least 40% decrease) [4]: 0% | Percent of subjects demonstrating robust improvement in Vanderbilt ADHD score (at least 40% decrease) [5]: 0% | Percent of subjects with improvement in Vanderbilt ADHD score (at least 25% decrease) [5]: 0% | Percent of subjects completing the dose escalation to 400 mg bid that show improvement in Vanderbilt ADHD scores (at least 25% decrease) [6]: 41% | Percent of subjects completing the dose escalation to 400 mg bid that show robust improvement in Vanderbilt ADHD scores (at least 40% decrease) [6]: 35% | Percent of subjects demonstrating robust improvement in Vanderbilt ADHD score (at least 40% decrease) [6]: 32% | Percent of subjects with improvement in Vanderbilt ADHD score (at least 25% decrease) [6]: 43% | Percent of subjects completing the dose escalation to 400 mg bid that show improvement in Vanderbilt ADHD scores (at least 25% decrease) [7]: 53% | Percent of subjects completing the dose escalation to 400 mg bid that show robust improvement in Vanderbilt ADHD scores (at least 40% decrease) [7]: 24% | Percent of subjects demonstrating robust improvement in Vanderbilt ADHD score (at least 40% decrease) [8]: 36% | Percent of subjects with improvement in Vanderbilt ADHD score (at least 25% decrease) [8]: 54% | Percent of subjects completing the dose escalation to 400 mg bid that show improvement in Vanderbilt ADHD scores (at least 25% decrease) [9]: 53% | Percent of subjects completing the dose escalation to 400 mg bid that show robust improvement in Vanderbilt ADHD scores (at least 40% decrease) [9]: 35% | Percent of subjects demonstrating robust improvement in Vanderbilt ADHD score (at least 40% decrease) [10]: 43% | Percent of subjects with improvement in Vanderbilt ADHD score (at least 25% decrease) [10]: 68% | Percent of subjects completing the dose escalation to 400 mg bid that show improvement in Vanderbilt ADHD scores (at least 25% decrease) [11]: 82% | Percent of subjects completing the dose escalation to 400 mg bid that show robust improvement in Vanderbilt ADHD scores (at least 40% decrease) [11]: 47% | Percent of subjects with improvement in Vanderbilt ADHD score (at least 25% decrease) (relative to pre-study (enrollment) baseline, Overall, Week 5, up to 400 mg bid, monohydrate): 78% and 75-80% | Percent of subjects completing the dose escalation to 400 mg bid that show improvement in Vanderbilt ADHD scores (at least 25% decrease) [12]: 56% | Percent of subjects completing the dose escalation to 400 mg bid that show robust improvement in Vanderbilt ADHD scores (at least 40% decrease) [12]: 44% | Percent of subjects demonstrating robust improvement in Vanderbilt ADHD score (at least 40% decrease) [12]: 35% | Percent of subjects with improvement in Vanderbilt ADHD score (at least 25% decrease) [12]: 47% | Percent of subjects completing the dose escalation to 400 mg bid that show improvement in Vanderbilt ADHD scores (at least 25% decrease) [13]: 89% | Percent of subjects completing the dose escalation to 400 mg bid that show robust improvement in Vanderbilt ADHD scores (at least 40% decrease) [13]: 44% | Percent of subjects demonstrating robust improvement in Vanderbilt ADHD score (at least 40% decrease) [14]: 50% | Percent of subjects with improvement in Vanderbilt ADHD score (at least 25% decrease) [14]: 75% | Percent of subjects completing the dose escalation to 400 mg bid that show improvement in Vanderbilt ADHD scores (at least 25% decrease) [15]: 89% | Percent of subjects completing the dose escalation to 400 mg bid that show robust improvement in Vanderbilt ADHD scores (at least 40% decrease) [15]: 56% | Percent of subjects demonstrating robust improvement in Vanderbilt ADHD score (at least 40% decrease) (relative to pre-study (enrollment) baseline, Tier 1, Week 4, up to 200 mg bid): 56%
